Source: patent US20240336900A1, “METHODS AND COMPOSITIONS RELATED TO MODIFIED METHYLTRANSFERASES AND ENGINEERED BIOSENSORS” (BOARD OF REGENTS, THE UNIVERSITY OF TEXAS SYSTEM, priority 2023, published 2024)

Columns and labels:
[1] = target: T1, RamR (Salmonella typhimurium, UniProt Q8ZR43); assay: Biosensor response assay, wild-type RamR with Pramr-GFP reporter; type: cell-based; settings: pReg-RamR + Pramr-GFP, upon induction
T1 construct: expressed in transfected cells; host or cells: E. coli DH10B
From the text: The wild-type RamR sensor was constitutively expressed on one plasmid (pReg-RamR) in parallel with another plasmid bearing the regulator's cognate promoter upstream of the sfGFP gene (Pramr-GFP). […] To better understand this promiscuous binding activity, norbelladine was docked within the ligand binding pocket of RamR using GNINA 1.0 […], and a conformational pose was identified whereby the phenol moiety of norbelladine forms hydrogen bonds with S137 and T85, while the catechol moiety forms a hydrogen bond with K63.
The pReg-RamR and Pramr-GFP plasmids were co-transformed into DH10B cells, which were then plated on LB agar plates containing appropriate antibiotics. Three separate colonies were picked for each transformation and were grown overnight. The following day, 20 μL of each culture was then used to inoculate six separate wells in a 2-mL 96-deep-well plate (Corning, P-DW-20-C-S) sealed with an AeraSeal film (Excel Scientific) containing 900 μL LB medium, one for each test ligand and a solvent control. […] One hundred microliters of the cell resuspension for each condition was transferred to a 96-well microtiter plate (Corning, 3904), from which the fluorescence (excitation, 485 nm; emission, 509 nm) and absorbance (600 nm) were measured using the Tecan Infinite M1000 plate reader.

[2] = target: T2, 4NB2.1 biosensor (Salmonella typhimurium, UniProt Q8ZR43, C134D/K63T/L66M/S137G); assay: Dose response of the evolved 4NB2.1 biosensor to 4NB (fluorescence, RFU/OD); type: cell-based, Escherichia coli
T2 construct: expressed in transfected cells; host or cells: E. coli DH10B
Protocol: For sensor variant validation, the subcloned pReg-RamR vectors expressing the sensor variants were transformed into DH10B cells expressing Pramr-GFP. These cultures were then assayed, as described in Biosensor response assay, using eight different concentrations of the 4NB.
Glycerol stocks (20% glycerol) of strains containing the plasmids of interest were inoculated into 1 ml LB medium and grown overnight at 37° C. Twenty microliters of overnight culture was seeded into 900 μl LB medium containing ampicillin and chloramphenicol in a 2-ml 96-deep-well plate sealed with an AeraSeal film. Following growth at 37° C. and 250 r.p.m. for 2 h, cultures were induced with 100 μl of an LB medium solution containing appropriate antibiotics and the inducer molecule dissolved in 10 μl DMSO. Cultures were grown for an additional 4 h at 37° C. and 250 r.p.m. and subsequently centrifuged (3,500 g, 4° C., 10 min). Supernatant was removed, and cell pellets were resuspended in 1 ml PBS. The cell resuspension (100 μl) for each condition was transferred to a 96-well microtiter plate, from which the fluorescence (excitation, 485 nm; emission, 509 nm) and absorbance (600 nm) were measured using the Tecan Infinite M1000 plate reader.
Bar graphs, fluorescence and growth curves, dose-response functions were all plotted in Python 3.6.9 using Matplotlib. Dose-response curves and EC50 values were estimated by fitting to the Hill equation y=d+(a−d)xb(cb+xb)−1 (where y=output signal, b=Hill coefficient, x=ligand concentration, d=background signal, a=maximum signal and c=EC50), with the scipy.optimize.curve_fit library in Python.

T2 sequence (Q8ZR43 other isoform, or with tags, fused parts or gaps K63T/L66M/C134D/S137G): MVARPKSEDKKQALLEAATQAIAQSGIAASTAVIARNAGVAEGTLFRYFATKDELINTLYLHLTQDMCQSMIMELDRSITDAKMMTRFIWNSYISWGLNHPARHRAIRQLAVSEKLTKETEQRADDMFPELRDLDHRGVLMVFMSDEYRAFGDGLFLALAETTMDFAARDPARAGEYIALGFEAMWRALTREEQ
T1 sequence (Q8ZR43 2-193, added parts left off): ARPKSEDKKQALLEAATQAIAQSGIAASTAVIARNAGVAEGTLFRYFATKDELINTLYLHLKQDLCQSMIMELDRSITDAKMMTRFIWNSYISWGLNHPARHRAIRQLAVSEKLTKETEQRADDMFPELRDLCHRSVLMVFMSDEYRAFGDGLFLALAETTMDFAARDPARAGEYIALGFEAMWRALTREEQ

Compound	increase in fluorescence [1]	4NB2.1 biosensor measurement ([2]; 1 uM 4NB supplemented into media)	4NB2.1 biosensor measurement ([2]; 2.5 uM 4NB supplemented into media)	4NB2.1 biosensor measurement ([2]; 5 uM 4NB supplemented into media)	4NB2.1 biosensor measurement ([2]; 10 uM 4NB supplemented into media)	4NB2.1 biosensor measurement ([2]; 25 uM 4NB supplemented into media)	4NB2.1 biosensor measurement ([2]; 50 uM 4NB supplemented into media)	4NB2.1 biosensor measurement ([2]; 100 uM 4NB supplemented into media)	4NB2.1 biosensor measurement ([2]; 250 uM 4NB supplemented into media)	4NB2.1 biosensor measurement ([2]; 500 uM 4NB supplemented into media)	4NB2.1 biosensor measurement ([2]; 1000 uM 4NB supplemented into media)	EC50 ([2]; biosensor developed by directed evolution)
COc1ccc(CNCCc2ccc(O)cc2)cc1O [4NB, 4-O'Methylnorbelladine]	3.8 fold	200.81 RFU/OD	240.62 RFU/OD	395.69 RFU/OD	944.28 RFU/OD	5648.44 RFU/OD	21194.72 RFU/OD	43800.94 RFU/OD	64506.12 RFU/OD	67029.6 RFU/OD	62040.21 RFU/OD	20 µM
Oc1ccc(CCNCc2ccc(O)c(O)c2)cc1 [norbelladine]	4.4 fold	–	–	–	–	–	–	–	–	–	–	–
